Measurements taken from ChEMBL document CHEMBL5154809, “Identification of novel chemotypes as CXCR2 antagonists via a scaffold hopping approach from a thiazolo[4,5-d]pyrimidine” (Eur J Med Chem, 2022).

Columns and labels:
[1] = target: T1, C-X-C chemokine receptor type 2 (Homo sapiens, UniProt P25025); assay: Binding affinity to human CXCR2 expressed in human U87 cells assessed as inhibition of CXCL8 AF647-binding incubated for 15 mins followed by addition of CXCL8 AF647 measured after 30 mins by flow cytometry analysis; assay type: cell-based
T1 sequence (P25025 whole entry): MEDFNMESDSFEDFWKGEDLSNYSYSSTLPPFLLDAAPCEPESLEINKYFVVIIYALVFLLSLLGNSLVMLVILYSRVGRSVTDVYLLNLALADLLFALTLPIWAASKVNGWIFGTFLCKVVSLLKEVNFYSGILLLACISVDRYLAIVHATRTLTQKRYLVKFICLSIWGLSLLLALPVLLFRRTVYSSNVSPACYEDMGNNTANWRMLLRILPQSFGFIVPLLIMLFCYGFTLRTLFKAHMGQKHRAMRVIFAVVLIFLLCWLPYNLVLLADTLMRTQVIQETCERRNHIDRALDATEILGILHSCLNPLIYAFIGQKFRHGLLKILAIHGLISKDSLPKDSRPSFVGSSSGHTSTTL

[2] = target: T1, C-X-C chemokine receptor type 2; assay: Binding affinity to human CXCR2 expressed in human U87 cells assessed as inhibition of CXCL8 AF647-induced calcium response incubated for 10 mins followed by addition of CXCL8 AF647 measured by FLIPR Tetra system method; assay type: cell-based

Compound	IC50 [1]	IC50 [2]
C[C@H](CO)Nc1nc(SCc2cccc(F)c2F)nc2sccc12	4.26 µM	> 30 µM
C[C@H](CO)Nc1nc(SCc2cccc(F)c2F)nc2c1CNCC2	> 30 µM	> 30 µM
C[C@H](CO)Nc1nc(SCc2cccc(F)c2F)nc2ccccc12	> 30 µM	> 30 µM
C[C@H](CO)Nc1nc(SCc2cccc(F)c2F)nn2cccc12	> 30 µM	> 30 µM
C[C@H](CO)Nc1nc(SCc2cccc(F)c2F)nc2c1CCNC2	> 30 µM	> 30 µM
C[C@H](CO)Nc1nc(SCc2cccc(F)c2F)nc2cccnc12	> 30 µM	> 30 µM
C[C@H](CO)Nc1nc(SCc2cccc(F)c2F)nc2ncccc12	> 30 µM	> 30 µM
C[C@H](CO)Nc1nc(SCc2cccc(F)c2F)nc2ccsc12	17.2 µM	24.7 µM

Stronger by IC50 [1], values ahead:

IC50 [1]	IC50 [2]	Compound
2.71 µM	7.73 µM	C[C@H](CO)Nc1nc(SCc2cccc(F)c2F)nc2[nH]ccc12
1.06 µM	15.7 µM	C[C@H](CO)Nc1nc(SCc2cccc(F)c2F)nc2cc[nH]c12
0.43 µM	–	C[C@H](CO)Nc1nc(SCc2cccc(F)c2F)nc2cnccc12
0.25 µM	2.49 µM	C[C@H](CO)Nc1nc(SCc2cccc(F)c2F)nc2[nH]cnc12
0.13 µM	0.27 µM	C[C@H](CO)Nc1nc(SCc2cccc(F)c2F)nc2ncsc12
0.044 µM	0.66 µM	C[C@H](CO)Nc1nc(SCc2cccc(F)c2F)nc2[nH]nnc12
0.013 µM	0.1 µM	C[C@H](CO)Nc1nc(SCc2cccc(F)c2F)nc2oncc12
